# Measurements taken from paper PMC8748916, “Microbial enzymes induce colitis by reactivating triclosan in the mouse gastrointestinal tract” (Nature Communications, 2022).
# Where “and” joins values, the source holds several entries; their conditions need not be identical. Equal values may be shown once. Read-outs that look alike come from different tables or passages of the source.
# Legend:
# [1] = set-up: method as in earlier work; conditions: human, ref 32,33 (reply to reviewers), cited from earlier work
# mouse fecal bacteria = experiment: Conversion of TCS-G to TCS by anaerobically cultured mouse fecal bacteria in vitro; type: in vitro ADME; conditions: from TCS-G, replicates
# human fecal bacteria = experiment: Conversion of TCS-G to TCS by anaerobically cultured human fecal bacteria in vitro; type: in vitro ADME; conditions: from TCS-G, replicates
# [2] = tested on: gut microbial β-glucuronidase (GUS) enzymes; experiment: Catalytic efficiency assay (HPLC) of TCS-G to TCS conversion by purified GUS enzymes; type: biochemical
# Caco2 cells = experiment: Cell proliferation assay (MTT); type: cell-based, human
# Method: (§1) Mouse (MC38) or human (Caco2 and HCT-116) intestinal cells were grown in DMEM medium fortified with 10% FBS (EMD Millipore Corporation). The cells were seeded in 96-well plates, then treated with GUSi or vehicle (0.2% v/v DMSO) for 24 h. Cell viability was determined using an MTT assay.
# (§2) Fig. S14. GUSi treatment has little effect on the proliferation of mouse or human intestinal cells in vitro.
# (§3) Mouse (MC38) or human (Caco2 and HCT-116) intestinal cells were treated with GUSi or vehicle (0.2% v/v
# (§4) DMSO) for 24 h, then cell viability was analyzed using a MTT assay. The data are mean ± SEM, n = 5-6 per
# HCT-116 cells = experiment: Cell proliferation assay (MTT); type: cell-based, human
# Method: as §1, §2, §3, §4
# mammalian GUS enzyme = tested on: mammalian GUS enzyme; set-up: method as in PMID 30062115; conditions: cited from earlier work
# [3] = Solubility in water (statement); type: physicochemical; conditions: authors' reply to reviewers
# MC38 cells = experiment: Cell proliferation assay (MTT); type: cell-based, mouse
# Method: as §1, §2, §3, §4
# F. prausnitzii GUS = F. prausnitzii GUS (Faecalibacterium prausnitzii, UniProt C7H4D2); experiment: In vitro IC50 assay (TCS-G to TCS conversion, HPLC); type: biochemical
# Method: (§5) Reaction mixtures containing 10 µL GUS (10 nM final), 10 µL TCS-G (200 µM final), 5 µL inhibitor (various concentrations), and 25 µL buffer (50 mM HEPES, 50 mM NaCl, various pH) or (50 mM sodium acetate, 50 mM NaCl, various pH) were incubated for 10 min and quenched with 50 µL 25% trichloroacetic acid. Samples were centrifuged 10 min at 16,000 × g, and the supernatant was analyzed using the method described for the catalytic efficiency assay. Inhibition was calculated by the equation below:1 %inhibition=100×(1−(AUCinh−AUCmax)/(AUCmin−AUCmax)) where AUCmin is the signal of the uninhibited reaction, AUCmax is the signal of the 100% inhibited reaction, and AUCinh is the signal of the reaction at a given concentration of inhibitor. Percent inhibition values were plotted against the log of inhibitor concentration, and GraphPad Prism 8.0 was used to determine IC50 values.
# E. eligens GUS = E. eligens GUS (Lachnospira eligens, UniProt C4Z6Z2); experiment: as above; type: biochemical
# Method: as §5
# [4] = tested on: epithelial cells in the ileum, proximal or distal colon; set-up: method as in PMID 32170007; conditions: proximal or distal colon of the treated mice; cited from earlier work
# Loop 1 GUS enzymes = experiment: In vitro IC50 assay, purified Loop 1 GUS enzymes (group statement); type: biochemical, gut microbial; conditions: Fp2-L1 GUS and several other Loop 1 GUS enzymes; conversion of TCS-G to TCS
# Method: as §5
# [5] = 24-h treatment, concentration up to 10 µM
# [6] = GUSi 0.411523 uM, Fig. 4b, triplicate
# [7] = GUSi 3.7037 uM, Fig. 4b, triplicate
# [8] = GUSi 11.1111 uM, Fig. 4b, triplicate
# [9] = GUSi 33.3333 uM, Fig. 4b, triplicate
# [10] = GUSi 100 uM, Fig. 4b, triplicate
structure (smiles),measurement,setting,value
"Oc1cc(Cl)ccc1Oc1ccc(Cl)cc1Cl [TCS, Triclosan]",plasma concentrations of TCS (TCS plus TCS-G),[1]; after weeks of daily use of TCS-containing toothpaste,"90–1,000 nM"
same,"plasma concentrations of TCS (TCS plus TCS-G), baseline",[1]; before use of TCS-containing toothpaste,0.03 to 2.7 nM
same,TCS formed,mouse fecal bacteria,17.00 pmol and 16.49 pmol and 18.41 pmol
same,TCS formed,human fecal bacteria,10.13 pmol and 12.20 pmol and 15.57 pmol
"O=C(O)C1OC(Oc2cc(Cl)ccc2Oc2ccc(Cl)cc2Cl)C(O)C(O)C1O (stereo not shown) [TCS-G, triclosan-glucuronide]",Catalytic efficiency,[2],221350 M⁻¹ s⁻¹ and 261200 M⁻¹ s⁻¹ and 185500 M⁻¹ s⁻¹
same,Catalytic efficiency,"[2]; Enzyme: B. uniformis 2, Fig. 3b, replicates 1-3",26480 M⁻¹ s⁻¹ and 25620 M⁻¹ s⁻¹ and 34030 M⁻¹ s⁻¹
same,Catalytic efficiency,"[2]; Enzyme: Clostridiales sp., Fig. 3b, replicates 1-3",421200 M⁻¹ s⁻¹ and 564000 M⁻¹ s⁻¹ and 643571 M⁻¹ s⁻¹
same,Catalytic efficiency,"[2]; Enzyme: E. coli, Fig. 3b, replicates 1-3",25610 M⁻¹ s⁻¹ and 27630 M⁻¹ s⁻¹ and 30620 M⁻¹ s⁻¹
same,Catalytic efficiency,"[2]; Enzyme: E. eligens, Fig. 3b, replicates 1-3",789000 M⁻¹ s⁻¹ and 987900 M⁻¹ s⁻¹ and 767700 M⁻¹ s⁻¹
same,Catalytic efficiency,"[2]; Enzyme: Eubacterium sp. CAG: 76, Fig. 3b, replicates 1-3",294800 M⁻¹ s⁻¹ and 499700 M⁻¹ s⁻¹ and 451000 M⁻¹ s⁻¹
same,Catalytic efficiency,"[2]; Enzyme: F. prausnitzii 2-L1, Fig. 3b, replicates 1-3",876200 M⁻¹ s⁻¹ and 975000 M⁻¹ s⁻¹ and 757000 M⁻¹ s⁻¹
same,Catalytic efficiency,"[2]; Enzyme: F. prausnitzii, Fig. 3b, replicates 1-3",373850 M⁻¹ s⁻¹ and 362000 M⁻¹ s⁻¹ and 260800 M⁻¹ s⁻¹
same,Catalytic efficiency,"[2]; Enzyme: R. gnavus 3, Fig. 3b, replicates 1-3",816300 M⁻¹ s⁻¹ and 891300 M⁻¹ s⁻¹ and 748300 M⁻¹ s⁻¹
same,Catalytic efficiency,"[2]; Enzyme: R. hominis 2, Fig. 3b, replicates 1-3",168600 M⁻¹ s⁻¹ and 249500 M⁻¹ s⁻¹ and 277800 M⁻¹ s⁻¹
same,Catalytic efficiency,"[2]; Enzyme: R. hominis 3, Fig. 3b, replicates 1-3",801500 M⁻¹ s⁻¹ and 763200 M⁻¹ s⁻¹ and 1075600 M⁻¹ s⁻¹
same,Catalytic efficiency,"[2]; Enzyme: R. inulinvorans, Fig. 3b, replicates 1-3",450800 M⁻¹ s⁻¹ and 617200 M⁻¹ s⁻¹ and 689000 M⁻¹ s⁻¹
"C1CCc2c(c(N3CCOCC3)nc3sc4c(N5CCNCC5)nnnc4c23)C1 [GUSi, UNC10201652]",effect on cell growth (MTT),Caco2 cells; [5],little effect
same,Cell proliferation (Fig. S14),"Caco2 cells; Caco2, concentration 1, replicates",98.3792 and 85.2575 and 104.44 and 99.0453 and 92.8508 and 100.244
same,Cell proliferation (Fig. S14),"Caco2 cells; Caco2, concentration 2, replicates",86.1234 and 96.6474 and 97.7798 and 94.9156 and 100.844
same,Cell proliferation (Fig. S14),"Caco2 cells; Caco2, concentration 5, replicates",95.1821 and 92.3845 and 92.5844 and 91.9849 and 82.46 and 86.0568
same,Cell proliferation (Fig. S14),"Caco2 cells; Caco2, concentration 10, replicates",85.1243 and 87.6554 and 72.6021 and 79.7957 and 82.3268 and 62.0782
same,effect on cell growth (MTT),HCT-116 cells; [5],little effect
same,Cell proliferation (Fig. S14),"HCT-116 cells; HCT 116, concentration 1, replicates",91.3142 and 95.487 and 92.4485 and 104.886 and 100.024
same,Cell proliferation (Fig. S14),"HCT-116 cells; HCT 116, concentration 2, replicates",98.4038 and 88.5189 and 93.2993 and 86.1692 and 98.1202 and 99.3761
same,Cell proliferation (Fig. S14),"HCT-116 cells; HCT 116, concentration 5, replicates",113.11 and 102.536 and 95.2844 and 92.408 and 101.807 and 114.082
same,Cell proliferation (Fig. S14),"HCT-116 cells; HCT 116, concentration 10, replicates",87.263 and 108.329 and 83.941 and 79.8088 and 79.1606 and 114.487
same,effect on the activity of mammalian GUS enzyme,mammalian GUS enzyme,no effect
same,solubility in water,[3],poorly solubilized
same,effect on cell growth (MTT),MC38 cells; [5],little effect
same,Cell proliferation (Fig. S14),"MC38 cells; MC38, concentration 1, replicates",97.1748 and 94.9589 and 98.929 and 107.192 and 94.0356 and 103.315
same,Cell proliferation (Fig. S14),"MC38 cells; MC38, concentration 2, replicates",103.453 and 99.2983 and 100.314 and 103.361 and 103.084 and 108.023
same,Cell proliferation (Fig. S14),"MC38 cells; MC38, concentration 5, replicates",85.9108 and 74.139 and 84.9875 and 91.9121 and 86.7418 and 84.0181
same,Cell proliferation (Fig. S14),"MC38 cells; MC38, concentration 10, replicates",68.784 and 87.3419 and 84.2489 and 91.7736 and 82.9102
same,F. prausnitzii GUS % inhibition,F. prausnitzii GUS; [6],-3.256% and -6.409% and 1.703%
same,F. prausnitzii GUS % inhibition,F. prausnitzii GUS; [7],31.508% and 41.6292%
same,inhibition at 3.7037 µM,F. prausnitzii GUS; [7],30.3%
same,F. prausnitzii GUS % inhibition,F. prausnitzii GUS; [8],65.4843% and 60.2667%
same,inhibition at 11.1111 µM,F. prausnitzii GUS; [8],68.7%
same,F. prausnitzii GUS % inhibition,F. prausnitzii GUS; [9],79.5271% and 77.5064%
same,inhibition at 33.3333 µM,F. prausnitzii GUS; [9],74.1%
same,F. prausnitzii GUS % inhibition,F. prausnitzii GUS; [10],90.4792% and 87.3233%
same,inhibition at 100 µM,F. prausnitzii GUS; [10],85.7%
same,IC50,"F. prausnitzii GUS; conversion of TCS-G (200 µM) to TCS, Loop 1 GUS",4.9 ± 0.8 µM
same,IC50,E. eligens GUS,3.1 ± 0.1 µM
same,inhibition at 0.0457247 µM,"E. eligens GUS; GUSi 0.0457247 uM, Fig. 4b, triplicate",0%
same,inhibition at 0.137174 µM,"E. eligens GUS; GUSi 0.137174 uM, Fig. 4b, triplicate",0%
same,inhibition at 0.411523 µM,E. eligens GUS; [6],0%
same,E. eligens GUS % inhibition,"E. eligens GUS; GUSi 1.23457 uM, Fig. 4b, triplicate",2.145% and 1.672%
same,E. eligens GUS % inhibition,E. eligens GUS; [7],67.2992% and 67.384%
same,inhibition at 3.7037 µM,E. eligens GUS; [7],64.7%
same,E. eligens GUS % inhibition,E. eligens GUS; [8],95.2204% and 97.0627%
same,inhibition at 11.1111 µM,E. eligens GUS; [8],90%
same,E. eligens GUS % inhibition,E. eligens GUS; [9],103.909% and 106.718%
same,inhibition at 33.3333 µM,E. eligens GUS; [9],97.2%
same,E. eligens GUS % inhibition,E. eligens GUS; [10],105.208% and 106.762%
same,inhibition at 100 µM,E. eligens GUS; [10],97.5%
same,effect on the proliferation of epithelial cells,[4],no effect
same,IC50,Loop 1 GUS enzymes,0.64 to 4.9 µM
